From patent publication US7521458B2, “Spiropiperidylrifamycins for the treatment of mycobacterial infections” (priority 2004, dated 2009)

Columns and labels:
Assay type in all cases: cell-based
[1] = test system: Mycobacterium tuberculosis ATCC 35838; assay: Method of the proportions, Table 3 entry 3
[2] = test system: Mycobacterium Kansasii 4 strains assayed; assay: Method of the proportions, Table 3 entry 12
[3] = test system: Mycobacterium tuberculosis H37 RV; assay: Method of the proportions, Table 3 entry 5
[4] = test system: Mycobacterium tuberculosis ATCC 35837; assay: Method of the proportions, Table 3 entry 1
[5] = test system: Mycobacterium tuberculosis ATCC 35822; assay: Method of the proportions, Table 3 entry 4
[6] = test system: Mycobacterium tuberculosis 8 strains assayed; assay: Method of the proportions, Table 3 entry 7
[7] = test system: Mycobacterium tuberculosis 38 strains assayed; assay: Method of the proportions, Table 3 entry 6
[8] = test system: Mycobacterium avium-intracellulare complex 5 strains assayed; assay: Method of the proportions, Table 3 entry 11
[9] = test system: Mycobacterium tuberculosis 3 strains assayed; assay: Method of the proportions, Table 3 entry 9
[10] = test system: Mycobacterium tuberculosis 1 strain assayed; assay: Method of the proportions, Table 3 entry 10
[11] = test system: Mycobacterium tuberculosis ATCC 35820; assay: Method of the proportions, Table 3 entry 2
[12] = test system: Mycobacterium tuberculosis 2 strains assayed; assay: Method of the proportions, Table 3 entry 8

Molecule	Sensitivity of strain (s/R) ([1]; concentration analysed 1 μg/ml)	Sensitivity of strains (s/R) ([2]; concentration analysed 1 μg/ml)	Sensitivity of strain (s/R) ([3]; concentration analysed 1 μg/ml)	Sensitivity of strain (s/R) ([4]; concentration analysed 1 μg/ml)	Sensitivity of strain (s/R) ([5]; concentration analysed 1 μg/ml)	Sensitivity of strains (s/R) ([6]; concentration analysed 1 μg/ml)	Sensitivity of strains (s/R) ([7]; concentration analysed 1 μg/ml)	Sensitivity of strains (s/R) ([8]; concentration analysed 1 μg/ml)	Sensitivity of strains (s/R) ([9]; concentration analysed 1 μg/ml)	Sensitivity of strain (s/R) ([10]; concentration analysed 1 μg/ml)	Sensitivity of strain (s/R) ([11]; concentration analysed 1 μg/ml)	Sensitivity of strains (s/R) ([12]; concentration analysed 1 μg/ml)	also measured
NNC(=O)c1cccs1 [TCH, 2-tiophene hydrazo carboxilic acid]	R (R means resistent)	R (R means resistent)	R (R means resistent)	R (R means resistent)	R (R means resistent)	R (R means resistent)	R (R means resistent)	R (R means resistent)	R (R means resistent)	R (R means resistent)	R (R means resistent)	R (R means resistent)	
CO[C@H]1/C=C/O[C@@]2(C)Oc3c(C)c(O)c4c(c3C2=O)C2=NC3(CCN(CC(C)C)CC3)NC2=C(NC(=O)/C(C)=C\C=C\[C@H](C)[C@H](O)[C@@H](C)[C@@H](O)[C@@H](C)[C@H](OC(C)=O)[C@@H]1C)C4=O [RFB, rifabutin]	s (s means sensitive)	s (s means sensitive)	s (s means sensitive)	R (R means resistent)	s (s means sensitive)	s (s means sensitive)	s (s means sensitive)	R (R means resistent)	s (s means sensitive)	s (s means sensitive)	s (s means sensitive)	s (s means sensitive)	MIC ([8]; Mycobacterium avium-intracellulare, five strains, all resistant): > 1 µg/mL
CN[C@@H]1[C@H](O[C@H]2[C@H](O[C@H]3[C@H](O)[C@@H](O)[C@H](N=C(N)N)[C@@H](O)[C@@H]3N=C(N)N)O[C@@H](C)[C@]2(O)C=O)O[C@@H](CO)[C@H](O)[C@H]1O [SM]													Sensitivity of strain (s/R) ([1]; concentration analysed 4 μg/ml): s (s means sensitive); Sensitivity of strains (s/R) ([2]; concentration analysed 4 μg/ml): R (R means resistent); Sensitivity of strain (s/R) ([3]; concentration analysed 4 μg/ml): s (s means sensitive); Sensitivity of strain (s/R) ([4]; concentration analysed 4 μg/ml): s (s means sensitive); Sensitivity of strain (s/R) ([5]; concentration analysed 4 μg/ml): s (s means sensitive); Sensitivity of strains (s/R) ([6]; concentration analysed 4 μg/ml): s (s means sensitive); Sensitivity of strains (s/R) ([7]; concentration analysed 4 μg/ml): s (s means sensitive); Sensitivity of strains (s/R) ([8]; concentration analysed 4 μg/ml): s/R; Sensitivity of strains (s/R) ([9]; concentration analysed 4 μg/ml): R (R means resistent); Sensitivity of strain (s/R) ([10]; concentration analysed 4 μg/ml): R (R means resistent); Sensitivity of strain (s/R) ([11]; concentration analysed 4 μg/ml): R (R means resistent); Sensitivity of strains (s/R) ([12]; concentration analysed 4 μg/ml): s (s means sensitive)
4-deoxo-3,4-[(2R)-2-spiro[2,6-bis(4-fluorophenyl)-4-piperidil]-2,5-dihydro-1H-imidazo]rifamycin S [RFA 5M]	s (s means sensitive)	s (s means sensitive)	s (s means sensitive)	s (s means sensitive)	s (s means sensitive)	s (s means sensitive)	s (s means sensitive)	s (s means sensitive)	s (s means sensitive)	s (s means sensitive)	s (s means sensitive)	s (s means sensitive)	
4-deoxo-3,4-[(2R)-2-spiro(N-homoallyl-2,6-diphenyl-4-piperidil)-2,5-dihydro-1H-imidazo]rifamycin S [RFA 15M]	s (s means sensitive)	s (s means sensitive)	s (s means sensitive)	R (R means resistent)	s (s means sensitive)	s (s means sensitive)	s (s means sensitive)	s/R	s (s means sensitive)	s (s means sensitive)	s (s means sensitive)	s (s means sensitive)	
CC[C@@H](CO)NCCN[C@@H](CC)CO [EB, ethambutol]													Sensitivity of strain (s/R) ([1]; concentration analysed 5 μg/ml): R (R means resistent); Sensitivity of strains (s/R) ([2]; concentration analysed 5 μg/ml): R (R means resistent); Sensitivity of strain (s/R) ([3]; concentration analysed 5 μg/ml): s (s means sensitive); Sensitivity of strain (s/R) ([4]; concentration analysed 5 μg/ml): s (s means sensitive); Sensitivity of strain (s/R) ([5]; concentration analysed 5 μg/ml): s (s means sensitive); Sensitivity of strains (s/R) ([6]; concentration analysed 5 μg/ml): s (s means sensitive); Sensitivity of strains (s/R) ([7]; concentration analysed 5 μg/ml): s (s means sensitive); Sensitivity of strains (s/R) ([8]; concentration analysed 5 μg/ml): R (R means resistent); Sensitivity of strains (s/R) ([9]; concentration analysed 5 μg/ml): s (s means sensitive); Sensitivity of strain (s/R) ([10]; concentration analysed 5 μg/ml): s (s means sensitive); Sensitivity of strain (s/R) ([11]; concentration analysed 5 μg/ml): s (s means sensitive); Sensitivity of strains (s/R) ([12]; concentration analysed 5 μg/ml): s (s means sensitive)
